Test results from US20040077674A1, “Mappicine analogs, intermediates in the synthesis of mappicine analogs and methods of synthesis of mappicine analogs” (priority 2002, published 2004).

Key:
[1] = target: T1, RNA-dependent DNA polymerase activity of HIV reverse transcriptase (Human immunodeficiency virus type 1 group M subtype B, UniProt P03366); assay: RNA-dependent DNA polymerase activity assay of HIV reverse transcriptase; assay type: biochemical, HIV-1; settings: 10 μM inhibitor concentration; activity in presence / in absence of analog x 100
T1 construct: made in house
Method: In separate representative assays, mappicine analogs were tested for their ability to inhibit the RNA-dependent DNA polymerase activity of HIV reverse transcriptase and for their ability to inhibit the RNase H activity of HIV reverse transcriptase. The assay for RNA-dependent DNA polymerase activity is discussed in Borkow, G. et al., “Inhibition of the Ribonuclease H and DNA Polymerase Activities of HIV-1 Reverse Transcriptase by N-(4-tert-Butylbenzoyl)-2-hydroxy-1-naphthaldehyde Hydrazone,” Biochemistry 1997, 36, 3179-3185, a copy of which is attached hereto and the disclosure of which is incorporated herein by reference. Assays were carried out in the absence and in the presence of mappicine analogs (10 μM final concentration). The results are reported as % residual activity, which is the RNA-dependent DNA polymerase activity of the enzyme in the presence of the mappicine analog divided by the RNA-dependent activity of the enzyme in the absence of the mappicine analog, multiplied by 100.

[2] = target: T2, RNase H activity of HIV reverse transcriptase (Human immunodeficiency virus type 1 group M subtype B, UniProt P03366); assay: Fluorescence (FRET)-based RNase H assay of HIV reverse transcriptase; assay type: biochemical, HIV-1; settings: 10 μM inhibitor concentration; activity in presence / in absence of analog x 100
T2 construct: 2.5 nM of the p51/p66 RT heterodimer in the assay; made in house
Method: Recently, a fluorescence-based assay to perform screens in search of HIV RNase H inhibitors has been developed. The assay, which is carried out in 96-well microplates and is adaptable to robotics, is the first high-throughput screen for RNase H and is described in further detail in the Experimental section. HIV-1 RT and human RNase H were cloned, and thus comparative analysis of inhibitor action could be conducted simultaneously.
The assay for RNase H activity of HIV reverse transcriptase was the fluorescence-based assay described in detail in the Experimental section and discussed in U.S. Provisional Patent Application Serial No. 60/318,359. Assays were carried out in the absence and in the presence of mappicine analogs (10 μM or 20 μM final concentration). The results are reported as % residual activity, which is the RNase H activity of the enzyme in the presence of the mappicine analog divided by the RNase H activity of the enzyme in the absence of the mappicine analog, multiplied by 100. Alternatively, the results are reported as % inhibition, which is calculated as the ratio of the RNase H activity of the enzyme in the presence of the mappicine analog to the enzyme activity in the absence of the mappicine analog, multiplied by 100, and then subtracting this number from 100.
Assay for Ribonuclease H Activity Based on Fluorescence Resonance Energy Transfer (FRET)
Preparation of the Fluorophore-RNA/Quencher-DNA Hybrid Duplex Substrate.
The RNA/DNA hybrid duplex substrate for use in the assay comprises an RNA oligonucleotide of sequence 5′-GAU CUG AGC CUG GGA GCU-3′, modified at the 3′-end with Aminolink-2 and derivatized with fluorescein isothiocyanate, to provide a modified RNA oligonucleotide of the sequence 5′-GAU CUG AGC CUG GGA GCU-fluorescein-3′, annealed to a complementary DNA oligonucleotide of the sequence 5′-AGC TCC CAG GCT CAG ATC-3′ modified at the 5′-end with Aminolink-2 and derivatized with the FRET acceptor DABCYL succinimidyl ester, to provide a modified DNA oligonucleotide of the sequence 5′-DABCYL-AGC TCC CAG GCT CAG ATC-3′.
To prepare the 3′-fluorescein-RNA/5′-DABCYL-DNA hybrid duplex substrate, a known amount of 3′-fluorescein-RNA was dissolved in 20 mM Tris buffer (pH 8.0, 37° C.) to provide a final concentration of 5 μM. Two equivalents of the 5′-DABCYL-DNA oligonucleotide were added, and the mixture was heated to 90° C. for 5 min and cooled slowly to room temperature to allow duplex formation. The positioning of the fluorescein donor at the 3′-end of the RNA oligonucleotide and the DABCYL acceptor at the 5′-end of the DNA oligonucleotide provides a very close proximity of the donor and acceptor that results in a very intense quenching of the fluorescein emission in the intact RNA/DNA hybrid duplex substrate due to the spectral overlap of the fluorescence emission of fluorescein with the absorption spectrum of DABCYL. In addition, DABCYL is non-fluorescent, and thus cannot contribute any light emission. Both of these factors result in a very low background and provide a high signal-to-noise in the assay measurements. The ratio of the donor fluorescence in the absence and in the presence of its quencher is approximately fifteen-fold.
Microplate Assay Protocol for the Measurement of RNase H Activity Using the RNA/IDNA Hybrid Duplex Substrate.
Reaction assay mixtures contained 5 μl of a stock solution of 2.5 μM RNA/DNA hybrid duplex substrate added to 85 μl of assay buffer (50 mM Tris, pH 8.0, 37° C., containing 60 mM KCl and 2.5 mM MgCl2), prepared in the wells of a 96-well fluorescence microtiter plate, and warmed to 37° C. using the temperature control of the SpectraMax Gemini XS microplate spectrofluorometer (Molecular Devices). Reactions were started by the addition of 5 μl of a solution of recombinant HIV-1 reverse transcriptase (usually providing a final concentration of 2.5 nM of the p51/p66 RT heterodimer in the assay), and mixing using the automatic mixing function of the microplate spectrofluorometer. […]

Cc1ccc2nc3c(c(-c4ccccc4)c2c1)Cn1c-3cc(C(O)Cc2ccccc2)c(C)c1=O (stereo not shown) [5 (3Cε)]
Residual activity (%) Polymerase [1]: 76% | Residual activity (%) RNase H [2]: 101%

CCC(O)c1cc2n(c(=O)c1C)Cc1c-2nc2ccc(OC)cc2c1-c1ccccc1 (stereo not shown) [5 (3Dα)]
Residual activity (%) Polymerase [1]: 69% | Residual activity (%) RNase H [2]: 78%

CCC(=O)c1cc2n(c(=O)c1C)Cc1c-2nc2ccc(OC)cc2c1-c1ccccc1 [5 (3Dακ)]
Residual activity (%) Polymerase [1]: 76% | Residual activity (%) RNase H [2]: 104%

COc1ccc2nc3c(c(-c4ccccc4)c2c1)Cn1c-3cc(C(O)C(C)(C)C)c(C)c1=O (stereo not shown) [5 (3Dβ)]
Residual activity (%) Polymerase [1]: 85% | Residual activity (%) RNase H [2]: 70%

COc1ccc2nc3c(c(-c4ccccc4)c2c1)Cn1c-3cc(C(O)CCC2CCCCC2)c(C)c1=O (stereo not shown) [5 (3Dδ)]
Residual activity (%) Polymerase [1]: 60% | Residual activity (%) RNase H [2]: 67%

COc1ccc2nc3c(c(-c4ccccc4)c2c1)Cn1c-3cc(C(=O)CCC2CCCCC2)c(C)c1=O [5 (3Dδκ)]
Residual activity (%) Polymerase [1]: 81% | Residual activity (%) RNase H [2]: 97%

COc1ccc2nc3c(c(-c4ccccc4)c2c1)Cn1c-3cc(C(O)Cc2ccccc2)c(C)c1=O (stereo not shown) [5 (3Dε)]
Residual activity (%) Polymerase [1]: 61% | Residual activity (%) RNase H [2]: 79%

COc1ccc2nc3c(c(-c4ccccc4)c2c1)Cn1c-3cc(C(=O)Cc2ccccc2)c(C)c1=O [5 (3Dεκ)]
Residual activity (%) Polymerase [1]: 73% | Residual activity (%) RNase H [2]: 88%

CCC(O)c1cc2n(c(=O)c1C)Cc1c-2nc2ccccc2c1[Si](C)(C)C(C)(C)C (stereo not shown) [5 (4Aα)]
Residual activity (%) Polymerase [1]: 67% | Residual activity (%) RNase H [2]: 104%

CCC(=O)c1cc2n(c(=O)c1C)Cc1c-2nc2ccccc2c1[Si](C)(C)C(C)(C)C [5 (4Aακ)]
Residual activity (%) Polymerase [1]: 43% | Residual activity (%) RNase H [2]: 76%

Cc1c(C(O)C(C)(C)C)cc2n(c1=O)Cc1c-2nc2ccccc2c1[Si](C)(C)C(C)(C)C (stereo not shown) [5 (4Aβ)]
Residual activity (%) Polymerase [1]: 71% | Residual activity (%) RNase H [2]: 101%

Cc1c(C(=O)C(C)(C)C)cc2n(c1=O)Cc1c-2nc2ccccc2c1[Si](C)(C)C(C)(C)C [5 (4Aβκ)]
Residual activity (%) Polymerase [1]: 79% | Residual activity (%) RNase H [2]: 70%

Cc1c(C(O)CCC2CCCCC2)cc2n(c1=O)Cc1c-2nc2ccccc2c1[Si](C)(C)C(C)(C)C (stereo not shown) [5 (4Aδ)]
Residual activity (%) Polymerase [1]: 45% | Residual activity (%) RNase H [2]: 95%

Cc1c(C(=O)CCC2CCCCC2)cc2n(c1=O)Cc1c-2nc2ccccc2c1[Si](C)(C)C(C)(C)C [5 (4Aδκ)]
Residual activity (%) Polymerase [1]: 39% | Residual activity (%) RNase H [2]: 102%

Cc1c(C(O)Cc2ccccc2)cc2n(c1=O)Cc1c-2nc2ccccc2c1[Si](C)(C)C(C)(C)C (stereo not shown) [5 (4Aε)]
Residual activity (%) Polymerase [1]: 83% | Residual activity (%) RNase H [2]: 93%

CCC(O)c1cc2n(c(=O)c1C)Cc1c-2nc2ccc(F)cc2c1[Si](C)(C)C(C)(C)C (stereo not shown) [5 (4Bα)]
Residual activity (%) Polymerase [1]: 98% | Residual activity (%) RNase H [2]: 108%

CCC(=O)c1cc2n(c(=O)c1C)Cc1c-2nc2ccc(F)cc2c1[Si](C)(C)C(C)(C)C [5 (4Bακ)]
Residual activity (%) Polymerase [1]: 42% | Residual activity (%) RNase H [2]: 77%

Cc1c(C(O)C(C)(C)C)cc2n(c1=O)Cc1c-2nc2ccc(F)cc2c1[Si](C)(C)C(C)(C)C (stereo not shown) [5 (4Bβ)]
Residual activity (%) Polymerase [1]: 49% | Residual activity (%) RNase H [2]: 113%

Cc1c(C(=O)C(C)(C)C)cc2n(c1=O)Cc1c-2nc2ccc(F)cc2c1[Si](C)(C)C(C)(C)C [5 (4Bβκ)]
Residual activity (%) Polymerase [1]: 82% | Residual activity (%) RNase H [2]: 79%

Cc1c(C(O)CCC2CCCCC2)cc2n(c1=O)Cc1c-2nc2ccc(F)cc2c1[Si](C)(C)C(C)(C)C (stereo not shown) [5 (4Bδ)]
Residual activity (%) Polymerase [1]: 44% | Residual activity (%) RNase H [2]: 90%

Cc1c(C(=O)CCC2CCCCC2)cc2n(c1=O)Cc1c-2nc2ccc(F)cc2c1[Si](C)(C)C(C)(C)C [5 (4Bδκ)]
Residual activity (%) Polymerase [1]: 56% | Residual activity (%) RNase H [2]: 96%

Cc1c(C(O)Cc2ccccc2)cc2n(c1=O)Cc1c-2nc2ccc(F)cc2c1[Si](C)(C)C(C)(C)C (stereo not shown) [5 (4Bε)]
Residual activity (%) Polymerase [1]: 61% | Residual activity (%) RNase H [2]: 89%

CCC(O)c1cc2n(c(=O)c1C)Cc1c-2nc2ccc(C)cc2c1[Si](C)(C)C(C)(C)C (stereo not shown) [5 (4Cα)]
Residual activity (%) Polymerase [1]: 94% | Residual activity (%) RNase H [2]: 91%

CCC(=O)c1cc2n(c(=O)c1C)Cc1c-2nc2ccc(C)cc2c1[Si](C)(C)C(C)(C)C [5 (4Cακ)]
Residual activity (%) Polymerase [1]: 52% | Residual activity (%) RNase H [2]: 90%

Cc1ccc2nc3c(c([Si](C)(C)C(C)(C)C)c2c1)Cn1c-3cc(C(O)C(C)(C)C)c(C)c1=O (stereo not shown) [5 (4Cβ)]
Residual activity (%) Polymerase [1]: 67% | Residual activity (%) RNase H [2]: 94%

Cc1ccc2nc3c(c([Si](C)(C)C(C)(C)C)c2c1)Cn1c-3cc(C(=O)C(C)(C)C)c(C)c1=O [5 (4Cβκ)]
Residual activity (%) Polymerase [1]: 67% | Residual activity (%) RNase H [2]: 65%

Cc1ccc2nc3c(c([Si](C)(C)C(C)(C)C)c2c1)Cn1c-3cc(C(O)CCC2CCCCC2)c(C)c1=O (stereo not shown) [5 (4Cδ)]
Residual activity (%) Polymerase [1]: 61% | Residual activity (%) RNase H [2]: 109%

Cc1ccc2nc3c(c([Si](C)(C)C(C)(C)C)c2c1)Cn1c-3cc(C(=O)CCC2CCCCC2)c(C)c1=O [5 (4Cδκ)]
Residual activity (%) Polymerase [1]: 52% | Residual activity (%) RNase H [2]: 96%

CCC(O)c1cc2n(c(=O)c1C)Cc1c-2nc2ccc(OC)cc2c1[Si](C)(C)C(C)(C)C (stereo not shown) [5 (4Dα)]
Residual activity (%) Polymerase [1]: 77% | Residual activity (%) RNase H [2]: 79%

CCC(=O)c1cc2n(c(=O)c1C)Cc1c-2nc2ccc(OC)cc2c1[Si](C)(C)C(C)(C)C [5 (4Dακ)]
Residual activity (%) Polymerase [1]: 80% | Residual activity (%) RNase H [2]: 77%

COc1ccc2nc3c(c([Si](C)(C)C(C)(C)C)c2c1)Cn1c-3cc(C(O)C(C)(C)C)c(C)c1=O (stereo not shown) [5 (4Dβ)]
Residual activity (%) Polymerase [1]: 47% | Residual activity (%) RNase H [2]: 91%

COc1ccc2nc3c(c([Si](C)(C)C(C)(C)C)c2c1)Cn1c-3cc(C(=O)C(C)(C)C)c(C)c1=O [5 (4Dβκ)]
Residual activity (%) Polymerase [1]: 64% | Residual activity (%) RNase H [2]: 97%

COc1ccc2nc3c(c([Si](C)(C)C(C)(C)C)c2c1)Cn1c-3cc(C(O)CCC2CCCCC2)c(C)c1=O (stereo not shown) [5 (4Dδ)]
Residual activity (%) Polymerase [1]: 51% | Residual activity (%) RNase H [2]: 87%

COc1ccc2nc3c(c([Si](C)(C)C(C)(C)C)c2c1)Cn1c-3cc(C(=O)CCC2CCCCC2)c(C)c1=O [5 (4Dδκ)]
Residual activity (%) Polymerase [1]: 50% | Residual activity (%) RNase H [2]: 83%

COc1ccc2nc3c(c([Si](C)(C)C(C)(C)C)c2c1)Cn1c-3cc(C(O)Cc2ccccc2)c(C)c1=O (stereo not shown) [5 (4Dε)]
Residual activity (%) Polymerase [1]: 49% | Residual activity (%) RNase H [2]: 76%
